In article PMC4158172 (European Journal of Clinical Pharmacology, 2014):
Read-outs that look alike come from different tables or passages of the source.

What was measured:
[1] = DTG steady-state plasma pharmacokinetics, interaction with EFV; format: in vivo, human; conditions: for Cmax / AUC / concentration at 24 h / Tmax: both sexes, human, oral, fasting; for AUC: read-out: AUC(0–τ); for concentration at 24 h: read-out: C τ; for Tmax: n=12, median (range)
Protocol: There was no washout between treatment periods. All doses were administered in the fasting state. […]

UGT2B7 = tested on: UGT2B7; design: method as in PMID 23132334; conditions: in vitro; cited from earlier work
[2] = Safety evaluations, interaction study with TPV/r; format: in vivo, human; conditions: healthy subjects n=18
Protocol: In both studies, safety evaluations [adverse event (AE) reporting, clinical chemistry laboratory tests, urinalysis, vital signs and electrocardiogram] were performed throughout the study. Given the known hepatotoxicity profile of TPV/r, more frequent monitoring of liver chemistries was performed in the TPV/r study, and conservative stopping criteria were employed such that any subject reaching a grade 2 increase in alanine aminotransferase (ALT) or aspartate aminotransferase (AST) was discontinued from the trial. Both trials were conducted as inpatient studies with subjects housed in the unit for the duration of the study. The studies were conducted in accordance with the principles of the Declaration of Helsinki. A written informed consent was obtained from all subjects, and both protocols were approved by the institutional review board of the study sites.

[3] = design: method as in PMID 23075918; conditions: DTG 50 mg twice daily with rifampin; cited from earlier work
CYP2B6 = tested on: CYP2B6; design: method as in PMID 23132334; conditions: in vitro; cited from earlier work
[4] = cited from earlier work
CYP3A4 = conditions: in vivo; cited from earlier work
UGT1A1 = tested on: UGT1A1; design: method as in PMID 23132334; conditions: in vitro; cited from earlier work
[5] = design: method as in earlier work; conditions: SAILING, DTG 50 mg once daily with EFV- or TPV/r-containing background regimens, n=16; cited from earlier work
CYP1A2 = tested on: CYP1A2; design: method as in PMID 23132334; conditions: in vitro; cited from earlier work
P-glycoprotein (P-gp) = tested on: P-glycoprotein (P-gp); design: method as in PMID 23132334; conditions: in vitro; cited from earlier work
[6] = design: method as in PMID 19884365; conditions: healthy subjects; cited from earlier work
[7] = Plasma metabolic profile of DTG (pooled plasma); format: in vivo, human; conditions: individual 24-h proportionally pooled plasma, DTG alone and DTG + EFV
Protocol: There was no washout between treatment periods. All doses were administered in the fasting state.
Urine samples were collected at intervals of 0 to 12 hours and 12 to 24 hours after each treatment period. Individual urine pools were produced for each subject in a given treatment group by combining proportional volumes (% of total volume) from the 0- to 12-hours and 12- to 24-hours collections. Individual pooled human plasma samples were prepared for each subject and treatment group.
Each pooled plasma sample was mixed with aqueous EDTA disodium salt solution (10 mg/mL) and subsequently extracted 3 times with methanol and acetonitrile. Pooled urine samples were lyophilised and the residue was reconstituted in water:methanol (90:10 v/v). Drug-related components in plasma extracts and urine samples were separated on a 100 × 4.6 mm 3.5-micron Symmetry C18 column (Waters Associates) at 40°C by a step-gradient elution method with a mobile phase composition of water:acetonitrile containing 0.1% ammonium acetate starting at 95:5 (v/v) and ending at 5:95 (v/v) over 50 minutes. The eluate was analysed by multistage mass spectrometry (MSn) using an LTQ Orbitrap™ Hybrid Mass Spectrometer with Xcalibur 2.07 software (Thermo Fisher Scientific, Bremen, Germany). […]

OATP1B1 = conditions: cited from earlier work
[8] = plasma, DTG 50 mg + EFV 600 mg q24h for 14 days, n=12, geometric mean (CV%)
[9] = plasma, DTG 50 mg q24h alone for 5 days, n=12, geometric mean (CV%)
[10] = co-administration of EFV 600 mg q24h and DTG 50 mg q24h

GLS mean ratio (90 % CI) of AUC(0–τ) ([1]; DTG+EFV vs DTG alone, n=12): 0.431 (0.346, 0.536)
GLS mean ratio (90 % CI) of C max ([1]; DTG+EFV vs DTG alone, n=12): 0.608 (0.506, 0.730)
GLS mean ratio (90 % CI) of C τ ([1]; DTG+EFV vs DTG alone, n=12): 0.245 (0.179, 0.336)
Cmax ([1]; DTG 50 mg q24h alone for 5 days, healthy subjects n=12, plasma, geometric mean (CV%)): 3080 ng/mL
Cmax [1, 8]: 1870 ng/mL
AUC [1, 8]: 18200 ng·h/mL
concentration at 24 h [1, 8]: 220 ng/mL
Tmax ([1]; plasma, DTG 50 mg + EFV 600 mg q24h for 14 days): 1 h
AUC [1, 9]: 42300 ng·h/mL
concentration at 24 h [1, 9]: 910 ng/mL
Tmax ([1]; plasma, DTG 50 mg q24h alone for 5 days): 2 h
decrease in plasma DTG AUC(0–τ) [1, 10]: 57%
decrease in plasma DTG C max [1, 10]: 39%
decrease in plasma DTG C τ [1, 10]: 75%
share of drug-related material in plasma [7]: > 97%
SMILES: C[C@@H]1CCO[C@H]2Cn3cc(C(=O)NCc4ccc(F)cc4F)c(=O)c(O)c3C(=O)N12 [DTG, Dolutegravir]
direct inhibition of UGT2B7 (UGT2B7): minimal or no direct inhibition
subjects reporting headache [2]: 11%
C τ higher than with DTG 50 mg once daily alone [3]: 22%
induction of CYP2B6 (CYP2B6): not an inducer
C0 ([4]; DTG 50 mg once daily without inducers, phase III studies in INI-naive populations): approximately 1.2 μg/mL
C0 (equivalent to C τ), geometric mean ([4]; VIKING-3, DTG 50 mg twice daily with EFV and TPV/r in background regimens, n=18, CV 63 %): 1620 ng/mL
C0 higher than with DTG 50 mg once daily without inducers ([4]; VIKING-3, DTG 50 mg twice daily with EFV and TPV/r in background regimens, n=18): 35%
component of metabolism via CYP3A4 (CYP3A4): ~10%
direct inhibition of UGT1A1 (UGT1A1): minimal or no direct inhibition
lower average DTG pre-dose (C 0) concentration [5]: 78%
pre-dose (C 0) concentration, geometric mean [5]: 186 ng/mL
induction of CYP1A2 (CYP1A2): not an inducer
direct inhibition of P-gp (P-glycoprotein (P-gp)): minimal or no direct inhibition
effect on midazolam exposure [6]: no significant effect
direct inhibition of OATP1B1 (OATP1B1): minimal or no direct inhibition
